# Assay results: patent US20210003596A1, “CHEMILUMINESCENT ANDROSTENEDIONE CONJUGATES” (Siemens Healthcare Diagnostics Inc., priority 2017, published 2021)
# How the values were obtained:
# Test in all cases: Competitive chemiluminescent immunoassay (ADVIA Centaur), binding of A4-AE conjugates to antibody on solid phase
# Design in all cases: species or system sheep; key: a “+” indicates appreciable binding of the specified A4-AE conjugate to the specified antibody; a “−” indicates no appreciable binding was observed
# [1] = tested on: monoclonal androstenedione antibody 4G8; settings: binding of A4-AE conjugate to 4G8 antibody, chemiluminescence; lite reagent 20 ng/mL tracer
# Protocol: (§1) Evaluation of A4-AE conjugates was performed using the ADVIA Centaur family of immunoassay analyzers (available from Siemens Healthcare Diagnostics Inc., Tarrytown, N.Y.) using a competitive assay format which utilizes a solid phase reagent and a lite reagent. The lite reagent comprises 20 ng/mL of an A4-AE tracer compound. The solid reagent comprises superparamagnetic beads (Dynabeads® M-270 Streptavidin available from ThermoFisher Scientific) labeled with biotinylated monoclonal anti-A4 antibody. Biotinylated sheep monoclonal androstenedione antibodies 3C3, 3H10, or 4G8 (available from Bioventix, UK) are introduced to the streptavidin coated superparamagnetic beads in order to produce solid phase particles attached to the antibody. Solid phase particles mixed with A4-AE in the absence of A4, results in solid phase binding complexes with the A4-AE compounds. When the […], competition for formation of a binding complex at each antibody occurs between A4 and A4-AE conjugates. […] Therefore, an increase in androstenedione concentration in measured samples correlates with a decrease in chemiluminescence of separated and washed solid phase particles binding complexes. Chemiluminescence of the separated solid phase particle binding complexes is induced by addition of an acidic solution (0.5% Peroxide/0.45% Nitric Acid (vol/vol)) followed by a basic solution (0.25N […]/0.45% ARQUAD® 16-50 (w/v)) and measured. Reagent volumes, concentrations, and assay parameters were otherwise identical in each experiment other than variation of the A4-AE tracer conjugate measured. Samples of androstenedione used in the lite reagent were prepared using a human serum albumin-based matrix (available from Bioresource Technology, Inc.) with the androstenedione sample concentrations shown in FIGS. 2A-2D (ng/mL).
# (§2) Chemiluminescence was monitored for a variety of A4-AE conjugates. Table 2 below and the corresponding FIGS. 2A-2D summarize the results of chemiluminescent experiments on several A4-AE conjugates which may be synthesized as described in the indicated Example number. In Table 3 a “+” indicates appreciable binding of the specified A4-AE conjugate to the specified antibody and a “−” indicates no appreciable binding was observed.
# [2] = tested on: monoclonal androstenedione antibody 3H10; settings: binding of A4-AE conjugate to 3H10 antibody, chemiluminescence; lite reagent 20 ng/mL tracer
# Protocol: as §1, §2
# [3] = tested on: monoclonal androstenedione antibody 3C3; settings: binding of A4-AE conjugate to 3C3 antibody, chemiluminescence; lite reagent 20 ng/mL tracer
# Protocol: as §1, §2
Compound,4G8 [1],3H10 [2],3C3 [3]
"Cc1cc(C(=O)NCCC[N+](C)(CCCNC(=O)COC[C@]23CCC(=O)C=C2CCC2C3CC[C@]3(C)C(=O)CCC23)CCCS(=O)(=O)[O-])cc(C)c1OC(=O)c1c2ccccc2[n+](CCCS(=O)(=O)[O-])c2ccccc12 (stereo partly drawn) [compound 3, A4(19)-CME-NH-Z-ZAE]",+,+,−
"Cc1cc(C(=O)NCCC[N+](C)(CCCNC(=O)CON=C2CCC3C4CCC5=CC(=O)CCC5(C)C4CCC23C)CCCS(=O)(=O)[O-])cc(C)c1OC(=O)c1c2ccccc2[n+](CCCS(=O)(=O)[O-])c2ccccc12 (stereo not drawn) [compound 2, A4(17)-CMO-Z-ZAE]",−,−,−
A4(3)-CMO-Z-ZAE [compound 1],−,+,+
"Cc1cc(C(=O)NCCC[N+](C)(CCCNC(=O)OC2CC3C4CCC(=O)C4(C)CCC3C3(C)CCC(=O)C=C23)CCCS(=O)(=O)[O-])cc(C)c1OC(=O)c1c2ccccc2[n+](CCCS(=O)(=O)[O-])c2ccccc12 (stereo not drawn) [compound 5, A4(6β)-carbamate-NH-Z-ZAE]",−,−,−
"Cc1cc(C(=O)NCCC[N+](C)(CCCNC(=O)CCC(=O)OC2CC3C4CCC(=O)C4(C)CCC3C3(C)CCC(=O)C=C23)CCCS(=O)(=O)[O-])cc(C)c1OC(=O)c1c2ccccc2[n+](CCCS(=O)(=O)[O-])c2ccccc12 (stereo not drawn) [compound 4, A4(6β)-hemisuccinate-NH-Z-ZAE]",+,+,+
"Cc1cc(C(=O)NCCC[N+](C)(CCCNC(=O)CCSC2CC3=CC(=O)CCC3(C)C3CCC4(C)C(=O)CCC4C23)CCCS(=O)(=O)[O-])cc(C)c1OC(=O)c1c2ccccc2[n+](CCCS(=O)(=O)[O-])c2ccccc12 (stereo not drawn) [compound 6, A4(7α)-CETE-NH-Z-ZAE]",+,+,+
